Results as given in patent publication US6617340B1, “N-(substituted glycyl)-pyrrolidines, pharmaceutical compositions containing them and their use in inhibiting dipeptidyl peptidase-IV” (Novartis AG, priority 1999, dated 2003).

Tests used:
[1] = target: T1, DPP-IV activity from human colonic carcinoma cell extracts (Caco-2) (Homo sapiens, UniProt P27487); test: Caco-2 DPP-IV Assay; assay type: biochemical; details: Caco-2 cell extract, substrate H-Alanine-Proline-pNA
T1 construct: Cell extract is prepared from cells solubilized in 10 mM Tris-HCl, 0.15 M NaCl, 0.04 t.i.u. aprotinin, 0.5% nonidet-P40; host or cells: Caco-2 (differentiated), NP-40 solubilized extract
T1 sequence (P27487 whole entry): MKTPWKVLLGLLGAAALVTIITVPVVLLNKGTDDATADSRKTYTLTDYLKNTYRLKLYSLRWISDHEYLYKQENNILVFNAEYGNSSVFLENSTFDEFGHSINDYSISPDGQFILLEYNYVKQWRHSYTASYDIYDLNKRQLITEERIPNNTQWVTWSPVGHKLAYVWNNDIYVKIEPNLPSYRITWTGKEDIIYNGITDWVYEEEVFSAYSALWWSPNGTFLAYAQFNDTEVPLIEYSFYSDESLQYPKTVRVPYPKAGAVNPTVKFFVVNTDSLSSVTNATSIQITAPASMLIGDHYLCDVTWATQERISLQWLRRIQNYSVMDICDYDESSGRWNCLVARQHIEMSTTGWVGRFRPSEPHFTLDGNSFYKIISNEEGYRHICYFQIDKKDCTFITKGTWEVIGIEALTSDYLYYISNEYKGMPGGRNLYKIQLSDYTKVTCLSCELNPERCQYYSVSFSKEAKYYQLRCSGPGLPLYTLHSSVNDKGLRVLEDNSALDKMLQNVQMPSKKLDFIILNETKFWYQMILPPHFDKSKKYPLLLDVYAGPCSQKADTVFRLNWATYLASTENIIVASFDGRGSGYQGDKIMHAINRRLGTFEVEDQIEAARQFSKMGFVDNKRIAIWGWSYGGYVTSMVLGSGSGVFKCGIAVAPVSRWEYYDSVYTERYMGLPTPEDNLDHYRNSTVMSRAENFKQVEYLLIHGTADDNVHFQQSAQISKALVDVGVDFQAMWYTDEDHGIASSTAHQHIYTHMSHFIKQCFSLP
Procedure: The human colonic carcinoma cell line Caco-2 was obtained from the American Type Culture Collection (ATCC HTB 37). Differentiation of the cells to induce DPP-IV expression was accomplished as described by Reisher, et al. in an article entitled “Increased expression of . . . intestinal cell line Caco-2” in Proc. Natl. Acad. Sci., Vol. 90, pgs. […] Cell extract is prepared from cells solubilized in 10 mM Tris-HCl, 0.15 M NaCl, 0.04 t.i.u. aprotinin, 0.5% nonidet-P40, pH 8.0, which is centrifuged at 35,000 g for 30 min. at 4° C. to remove cell debris. The assay is conducted by adding 20 μg solubilized Caco-2 protein, diluted to a final volume of 125 μl in assay buffer (25 mM Tris-HCl pH 7.4, 140 mM NaCl, 10 mM KCl, 1% bovine serum albumin) to microtiter plate wells. The reaction is initiated by adding 25 μl of 1 mM substrate (H-Alanine-Proline-pNA; pNA is p-nitroaniline). The reaction is run at room temperature for 10 minutes after which time a 19 μl volume of 25% glacial acetic acid is added to stop the reaction. […] A standard curve of free p-nitroaniline is generated using 0-500 μM solutions of free pNA in assay buffer. The curve generated is linear and is used for interpolation of substrate consumption (catalytic activity in nmoles substrate cleaved/min). […] The potency of the test compounds as DPP-IV inhibitors, expressed as IC50, is calculated from 8-point, dose-response curves using a 4-parameter logistic function.

[2] = target: T2, DPP-IV activity in human plasma (Homo sapiens, UniProt P27487); test: human plasma DPP-IV assay; assay type: biochemical; details: substrate H-Glycine-Proline-AMC
T2 construct: from tissue; host or cells: human plasma
T2 sequence (P27487 39-766 limits assumed): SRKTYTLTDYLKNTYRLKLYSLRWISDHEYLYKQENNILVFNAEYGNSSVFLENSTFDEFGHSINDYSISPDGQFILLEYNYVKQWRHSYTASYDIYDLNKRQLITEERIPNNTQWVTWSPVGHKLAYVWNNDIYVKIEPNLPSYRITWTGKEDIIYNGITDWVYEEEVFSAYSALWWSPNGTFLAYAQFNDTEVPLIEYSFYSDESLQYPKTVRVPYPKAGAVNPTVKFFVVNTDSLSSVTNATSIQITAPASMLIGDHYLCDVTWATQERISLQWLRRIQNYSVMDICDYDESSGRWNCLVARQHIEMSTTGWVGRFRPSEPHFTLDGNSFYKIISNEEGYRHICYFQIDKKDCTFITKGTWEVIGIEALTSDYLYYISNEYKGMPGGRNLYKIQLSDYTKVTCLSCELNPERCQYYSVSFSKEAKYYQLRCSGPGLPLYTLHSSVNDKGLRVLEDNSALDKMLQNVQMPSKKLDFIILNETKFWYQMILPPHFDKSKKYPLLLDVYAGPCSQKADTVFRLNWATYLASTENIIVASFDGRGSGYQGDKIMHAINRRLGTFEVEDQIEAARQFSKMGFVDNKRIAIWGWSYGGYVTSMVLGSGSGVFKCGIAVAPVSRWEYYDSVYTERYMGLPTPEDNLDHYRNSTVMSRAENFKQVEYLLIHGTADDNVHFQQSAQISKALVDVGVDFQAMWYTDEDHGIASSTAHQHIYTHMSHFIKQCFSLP
Procedure: (§1) Briefly, five μl of plasma are added to 96-well flat-bottom mictotiter plates (Falcon), followed by the addition of 5 μl of 80 mM MgCl2 in incubation buffer (25 mM HEPES, 140 mM NaCl, 1% RIA-grade BSA, pH 7.8). After a 5 min. incubation at room temperature, the reaction is initiated by the addition of 10 μl of incubation buffer containing 0.1 mM substrate (H-Glycine-Proline-AMC; AMC is 7-amino-4-methylcoumarin). The plates are covered with aluminum foil (or kept in the dark) and incubated at room temperature for 20 min. […] A fluorescence-concentration curve of free AMC is generated using 0-50 μM solutions of AMC in assay buffer. The curve generated is linear and is used for interpolation of substrate consumption (catalytic activity in nmoles substrate cleaved/min). As with the previous assay, the potency of the test compounds as DPP-IV inhibitors, expressed as IC50, is calculated from 8-point, dose-response curves using a 4 parameter logistic function.

[3] = target: T3, DPP-IV activity in rat plasma (Rattus norvegicus, UniProt P14740); test: rat plasma DPP-IV assay; assay type: biochemical; details: substrate H-Glycine-Proline-AMC
T3 construct: from tissue; host or cells: rat plasma
T3 sequence (P14740 37-767 limits assumed): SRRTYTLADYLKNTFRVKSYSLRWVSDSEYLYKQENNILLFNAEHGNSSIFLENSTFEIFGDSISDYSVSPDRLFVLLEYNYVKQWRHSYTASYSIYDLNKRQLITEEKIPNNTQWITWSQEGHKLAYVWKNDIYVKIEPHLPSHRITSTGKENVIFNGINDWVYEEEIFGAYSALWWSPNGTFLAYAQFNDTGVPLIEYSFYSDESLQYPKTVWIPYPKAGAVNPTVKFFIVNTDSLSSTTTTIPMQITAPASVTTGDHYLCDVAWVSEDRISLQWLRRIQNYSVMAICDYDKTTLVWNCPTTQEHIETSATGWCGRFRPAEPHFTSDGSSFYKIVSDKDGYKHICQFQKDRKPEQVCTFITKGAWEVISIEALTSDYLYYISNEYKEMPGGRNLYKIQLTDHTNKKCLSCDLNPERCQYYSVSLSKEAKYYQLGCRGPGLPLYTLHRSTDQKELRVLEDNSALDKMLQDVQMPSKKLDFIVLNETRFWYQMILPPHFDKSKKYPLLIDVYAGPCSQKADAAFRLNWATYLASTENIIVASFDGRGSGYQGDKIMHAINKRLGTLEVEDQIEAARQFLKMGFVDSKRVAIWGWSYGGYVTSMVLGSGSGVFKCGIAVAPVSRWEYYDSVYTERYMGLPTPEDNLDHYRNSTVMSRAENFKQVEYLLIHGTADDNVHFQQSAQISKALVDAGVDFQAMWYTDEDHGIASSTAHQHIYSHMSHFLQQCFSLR
Procedure: as §1

O=C(CNCCNc1ccc(Cl)cn1)N1CCCC1 [Ex. 1, 1-[2-[(5-chloropyridin-2-yl)amino]ethylamino]acetylpyrrolidine]
IC50 [1]: 5.5 µM
IC50 [2]: 15.9 µM
IC50 [3]: 9.3 µM

N#Cc1ccc(NCCNCC(=O)N2CCCC2)nc1 [Ex. 2A, 1-[2-[(5-cyanopyridin-2-yl)amino]ethylamino]acetylpyrrolidine]
IC50 [1]: 2.6 µM
IC50 [2]: 9.2 µM
IC50 [3]: 4.4 µM
melting point: 122 to 123 °C

O=C(CNCCNc1ncccn1)N1CCCC1 [Ex. 2B]
IC50 [1]: 27.5 µM
IC50 [2]: 45.8 µM
IC50 [3]: 28.4 µM

O=C(CNC1(CO)CCCC1)N1CCCC1 [Ex. 2C, 1-[(1-hydroxymethylcyclopent-1-yl)amino]acetylpyrrolidine]
IC50 [1]: 9.7 µM
IC50 [2]: 15.2 µM
IC50 [3]: 7.8 µM
melting point: 72 to 74 °C

O=C(CNCCNc1ccccn1)N1CCCC1 [Ex. 2D, 1-[2-[(pyridin-2-yl)amino]ethylamino]acetylpyrrolidine]
IC50 [1]: 6.4 µM
IC50 [2]: 9.4 µM
IC50 [3]: 22.9 µM
melting point: 98 to 100 °C
